Among the test systems are HCT-116 colon; HT29 colon; LOX IMVI melanoma; M14 melanoma; NCI-H522 lung; RPMI-8226 leukemia; SF-539 CNS; SNB-19 CNS; U251 CNS; BT-549 breast.
Common to all, as to experiment: DTP human tumour cell line panel, 48 h

“And” between values parts separate entries of the source, which are not always exact repeats. Identical values can stand only once.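 Protocol summary: plate cells (96-well), add compound at 5 concentrations, incubate 48 h, interpolate endpoints linearly. GI50: concentration for 50% inhibition of growth. At the TGI there is no net growth.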 Where only a bound is given, the exact number is not on record here.

What is called TGI is the concentration at which net growth stops. High values mean less potent growth arrest, low ones more potent growth arrest. For `CCc1cccc(C(C)C)c1NC(=O)CC1Sc2ccccc2NC1=O` (stereo not given), the TGI in the assay with HCT-116 colon was above 100 µM; in the assay with HT29 colon, above 100 µM; in the assay with LOX IMVI melanoma, above 100 µM; in the assay with M14 melanoma it was above 100 µM; in the assay with NCI-H522 lung, 97.6 µM; in the assay on RPMI-8226 leukemia, above 100 µM. The TGI in the assay with SF-539 CNS, in the assay on SNB-19 CNS and with U251 CNS was above 100 µM throughout.

As to `OCC1NC(COC2OC(CO)C(O)C(O)C2O)C(O)C(O)C1O` (stereo not given), the TGI in the assay with BT-549 breast, with HCT-116 colon, in the assay with HT29 colon, in the assay with M14 melanoma, in the assay on NCI-H522 lung and in the assay on RPMI-8226 leukemia was above 100 µM each time. The TGI with SF-539 CNS, with SNB-19 CNS and in the assay with U251 CNS was above 100 µM in each case.

In general, GI50 refers to the concentration that inhibits growth by half. For the compound `O=C1c2c(O)cccc2C(C(=O)CCCCCC(=O)C2c3cccc(O)c3C(=O)c3c(O)cccc32)c2cccc(O)c21`, the GI50 is 7.61 µM in the assay with HCT-116 colon; 11.8 µM in the assay with HT29 colon; 1.95 µM in the assay with LOX IMVI melanoma; 7.79 µM in the assay with M14 melanoma; 6.72 µM with NCI-H522 lung; 1.55 µM with RPMI-8226 leukemia. Moreover, the values for the GI50 with SF-539 CNS, in the assay with SNB-19 CNS and with U251 CNS were 6.64 µM, 2.05 µM and 2.5 µM, respectively. The TGI with HCT-116 colon is 25 µM and 14.9 µM; in the assay on HT29 colon it was 11.4 µM and 23.1 µM; with LOX IMVI melanoma it was 8.85 µM and 7.1 µM; in the assay with M14 melanoma it was 2.5 µM and 16.8 µM; in the assay with RPMI-8226 leukemia, 2.1 µM and 4.41 µM; in the assay on SNB-19 CNS, 3.9 µM and 6.97 µM. In addition, in the assay with U251 CNS, the TGI was 3.11 µM and 8.21 µM.

`OCC#CCOCC#Cc1ccccc1C#CCOCC#CCO`: the GI50 was 34.2 µM with BT-549 breast; 16.6 µM in the assay on HCT-116 colon; 20.2 µM with M14 melanoma; 66.5 µM in the assay on NCI-H522 lung; 13.7 µM in the assay on RPMI-8226 leukemia; 47.4 µM with SF-539 CNS. Moreover, the TGI in the assay with BT-549 breast is 93.2 µM; with HCT-116 colon, 44 µM; in the assay on M14 melanoma, 49.9 µM; in the assay with NCI-H522 lung it was above 100 µM; in the assay on RPMI-8226 leukemia it was 35.3 µM; with SF-539 CNS it was above 100 µM.

In the case of `N#C/C(=C\c1ccc(O)c(O)c1)C(=O)NCc1ccc(C(F)(F)F)cc1`, the GI50 in the assay with BT-549 breast is 10.6 µM; with HCT-116 colon, 2.58 µM; in the assay with HT29 colon, 15.7 µM; with LOX IMVI melanoma, 7.54 µM; in the assay with NCI-H522 lung, 3.06 µM; in the assay with RPMI-8226 leukemia, 3.21 µM. Further, the GI50 in the assay with SF-539 CNS was 5.5 µM; in the assay on SNB-19 CNS it was 11.2 µM; in the assay with U251 CNS, 5.67 µM. Further, the TGI in the assay with BT-549 breast was above 53.7 µM; in the assay with HCT-116 colon, 11.4 µM; with HT29 colon it was 50.7 µM; in the assay on LOX IMVI melanoma, 20.4 µM; in the assay on NCI-H522 lung, 19.6 µM; with SF-539 CNS, 17.8 µM. Moreover, the TGI is above 68 µM in the assay on SNB-19 CNS and 28.9 µM in the assay with U251 CNS.

Take `O/N=C1/CCCC/C1=C/C=C/c1ccccc1`: the TGI with HCT-116 colon was determined as 29.7 µM; in the assay on HT29 colon it was 32.9 µM; in the assay on LOX IMVI melanoma, 31.3 µM; in the assay on M14 melanoma, 40.9 µM; in the assay on NCI-H522 lung, 34.1 µM; in the assay on RPMI-8226 leukemia, 71.7 µM. Moreover, the TGI was 38.3 µM with SF-539 CNS, above 100 µM in the assay on SNB-19 CNS and 32.3 µM with U251 CNS.

`NCCOc1ccc(/C(=C(/Cl)c2ccccc2)c2ccccc2)cc1`: the TGI was 20.2 µM in the assay with HCT-116 colon; 7.81 µM in the assay with HT29 colon; 16.6 µM in the assay on LOX IMVI melanoma; 5.29 µM in the assay on M14 melanoma; 26.4 µM with NCI-H522 lung; 11 µM in the assay on RPMI-8226 leukemia. Besides, the TGI with SF-539 CNS is 28.9 µM; in the assay on SNB-19 CNS, 28.9 µM; in the assay with U251 CNS, 23.7 µM.

Regarding `N#Cc1ncc(C(Cl)Cl)nc1Cl`, the TGI came out at 4.8 µM in the assay on BT-549 breast; 3.04 µM in the assay on HCT-116 colon; 3.16 µM in the assay on HT29 colon; 2.97 µM with LOX IMVI melanoma; 2.82 µM with M14 melanoma; 1.74 µM in the assay with NCI-H522 lung. Besides, the TGI in the assay on SF-539 CNS is 3.44 µM; with SNB-19 CNS, above 10 µM; in the assay on U251 CNS, 3.78 µM.

As for `O=CC(OC(=O)c1ccccc1)C(OC(=O)c1ccccc1)C(COC(c1ccccc1)(c1ccccc1)c1ccccc1)OC(=O)c1ccccc1` (stereo not given), the GI50 was 23.4 µM in the assay on BT-549 breast; 6.21 µM in the assay with HCT-116 colon; 11.7 µM in the assay with HT29 colon; 11 µM with LOX IMVI melanoma; 14 µM with M14 melanoma; 4.72 µM in the assay on NCI-H522 lung. Besides, the GI50 was 5.28 µM in the assay with SF-539 CNS, 15.3 µM in the assay with SNB-19 CNS and 7.51 µM in the assay on U251 CNS. Further, the TGI in the assay on BT-549 breast is above 100 µM; with HCT-116 colon it was 19 µM; in the assay with HT29 colon it was 26.3 µM; in the assay on LOX IMVI melanoma, 27.3 µM; in the assay with M14 melanoma it was 30.3 µM; with NCI-H522 lung, 18.7 µM. Moreover, the TGI in the assay on SF-539 CNS turned out to be 19.4 µM; in the assay with SNB-19 CNS, 28.6 µM; in the assay on U251 CNS it was 20.2 µM.

Consider `Cc1cc2c(cc1Cl)SC(N(c1ccccc1Cl)S(=O)(=O)c1ccc(Br)s1)=NS2(=O)=O`, for which the GI50 in the assay with HCT-116 colon was 16.5 µM; in the assay with HT29 colon it was 19.9 µM; in the assay with LOX IMVI melanoma, 12.1 µM; in the assay on M14 melanoma it was 18.5 µM; in the assay with NCI-H522 lung it was 13.5 µM; with RPMI-8226 leukemia it was 24.8 µM. Further, the results for the GI50 in the assay with SF-539 CNS, in the assay with SNB-19 CNS and in the assay with U251 CNS were 9.92 µM, 19.9 µM and 16.5 µM, respectively. Further, the TGI in the assay on HCT-116 colon was 34.3 µM; with HT29 colon, 41.6 µM; with LOX IMVI melanoma, 25.5 µM; in the assay with M14 melanoma, 47.3 µM; in the assay with NCI-H522 lung, 31.7 µM; in the assay with RPMI-8226 leukemia it was 82.3 µM. Also, the TGI with SF-539 CNS amounted to 23.7 µM; with SNB-19 CNS it was 68.5 µM; in the assay with U251 CNS, 46.3 µM.

On to `Cc1ccccc1/C=C/c1csnn1`, for which the TGI is above 59.3 µM with HCT-116 colon; above 100 µM with HT29 colon; above 100 µM in the assay with LOX IMVI melanoma; above 100 µM with M14 melanoma; above 100 µM in the assay on NCI-H522 lung; 79.7 µM in the assay with RPMI-8226 leukemia. In addition, the TGI in the assay on SF-539 CNS, in the assay on SNB-19 CNS and in the assay on U251 CNS was above 100 µM in each case.

These data come from PubChem BioAssay (NCI).
